# Laboratory results from article PMC9841576, “Characterisation of C101248: A novel selective THIK-1 channel inhibitor for the modulation of microglial NLRP3-inflammasome” (Neuropharmacology, 2023).
# Legend:
# [1] = target: T1, THIK-1 K+ currents in microglia (Mus musculus, UniProt Q8R1P5); experiment: Whole-cell patch clamp of microglia in acute hippocampal slices, wild-type mice; assay type: cell-based
# T1 construct: To study the effect of C10248 in native brain tissue; from tissue; host or cells: microglia in acute hippocampal slices of 3-4 month old Cx3Cr1-GFP mice
# T1 sequence (Q8R1P5 whole entry): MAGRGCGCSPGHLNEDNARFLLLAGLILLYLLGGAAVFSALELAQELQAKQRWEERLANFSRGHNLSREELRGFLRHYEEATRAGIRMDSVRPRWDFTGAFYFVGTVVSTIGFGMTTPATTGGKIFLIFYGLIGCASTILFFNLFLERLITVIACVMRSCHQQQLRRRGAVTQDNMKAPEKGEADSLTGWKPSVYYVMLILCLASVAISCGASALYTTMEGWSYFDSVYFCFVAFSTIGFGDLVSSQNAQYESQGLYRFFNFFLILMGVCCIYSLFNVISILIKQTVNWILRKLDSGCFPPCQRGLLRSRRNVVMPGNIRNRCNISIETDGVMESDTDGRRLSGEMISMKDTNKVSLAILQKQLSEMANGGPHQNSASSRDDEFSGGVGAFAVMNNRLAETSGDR
# Description: (§1) Acute hippocampal slices (300 μm thick), from 3 to 4 months old mice, were prepared using a specially adapted protective slicing solution ([Ting et al., 2014]) containing (mM) 93 choline chloride, 20 HEPES, 30 NaHCO3, 2.5 KCl, 0.5 CaCl2, 10 MgCl2, 1.2 NaH2PO4, 25 glucose, 1 kynurenic acid, 5 Na-ascorbate, 3 Na-pyruvate, pH adjusted to 7.4, bubbled with 95% O2/5% CO2 and cooled at <4 °C, and a recovery solution containing (mM) 92 NaCl, 20 HEPES, 30 NaHCO3, 2.5 KCl, 2 CaCl2, 1 MgCl2, 1.2 NaH2PO4, 25 glucose, 1 kynurenic acid, 5 Na-ascorbate, 3 Na-pyruvate, pH set to 7.4 and bubbled with 95% O2/5% CO2
# (§2) Immediately after slicing, slices were placed for 13 min in warm (33–35 °C) slicing solution and then transferred to recovery solution at room temperature until experimental usage. […] Slices were perfused with bicarbonate-buffered solution, at 34–36 °C for all experiments, containing (mM) 124 NaCl, 2.5 KCl, 26 NaHCO3, 1 NaH2PO4, 2 CaCl2, 1 MgCl2, 10 glucose, bubbled with 95% O2/5% CO2. Microglia were whole-cell clamped with electrodes containing K-gluconate based solution, comprising (mM) 130 K-glu, 4 NaCl, 1 CaCl2, 10 HEPES, 10 EGTA, 4 MgATP, 0.5 Na2GTP, pH set to 7.2 with KOH and osmolarity adjusted to […]. […] Currents were filtered at 1 kHz, digitized (10 kHz) and analysed off-line using pClamp10 software.
# [2] = test system: other constitutively active resting conductance in microglia; experiment: Whole-cell patch clamp of microglia in hippocampal slices: other resting and voltage-dependent currents; assay type: cell-based, mouse; details: 5 μM
# Description: as §1, §2
# TREK-1 = target: T2, TREK-1 (Homo sapiens, UniProt O95069); experiment: FLIPR thallium influx assay, HEK-hTREK-1 cells; assay type: cell-based; details: HEK-hTREK-1, at 30 μM, compared to TPA controls; read-out: inhibition of constitutive activity
# T2 construct: expressed in transfected cells
# T2 sequence (O95069 whole entry): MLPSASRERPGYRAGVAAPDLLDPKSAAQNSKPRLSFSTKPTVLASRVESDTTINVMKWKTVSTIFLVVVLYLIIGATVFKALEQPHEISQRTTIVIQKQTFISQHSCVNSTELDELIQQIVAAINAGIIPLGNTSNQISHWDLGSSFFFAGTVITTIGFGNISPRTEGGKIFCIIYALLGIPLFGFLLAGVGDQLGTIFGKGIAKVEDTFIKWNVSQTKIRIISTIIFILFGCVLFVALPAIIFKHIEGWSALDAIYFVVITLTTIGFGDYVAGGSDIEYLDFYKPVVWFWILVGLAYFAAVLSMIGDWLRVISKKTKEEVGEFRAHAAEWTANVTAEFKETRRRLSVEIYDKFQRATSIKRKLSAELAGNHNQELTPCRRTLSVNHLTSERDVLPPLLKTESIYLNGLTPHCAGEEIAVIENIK
# Description: HEK-293 cells were transfected with human THIK-1, TREK-1, TWIK-2, or mouse THIK-1 cDNA cloned into pcDNA3.1, using either Fugene HD transfection reagent (Promega) or electroporation (MaxCyte STX instrument). Cells stably expressing the relevant genes were selected based on resistance to 500 μg/ml geneticin (Gibco). For human THIK-1 and TWIK-2 expressing cells, monoclonal lines were isolated by limited dilution cloning; mouse THIK-1 and human TREK-1 expressing cells were maintained as polyclonal pools. The HEK-293 pools and monoclones stably expressing the relevant genes were maintained in DMEM (Life Technologies), supplemented with 10% FCIII (HyClone, Fetal clone III) and 500 μg/ml geneticin. A CHO-Kv2.1 cell line was purchased from Millipore (accession NM_004975) and maintained in F12 (Life Technologies), supplemented with 10% FCSIII (Thermo Scientific) and 500 μg/ml geneticin (Life Technologies). […]
# A fluorescence-based thallium influx assay (Molecular Devices potassium assay kit) was used to monitor channel activity. […] Using a fluorescent imaging plate reader (FLIPR) tetra plate reader, 15 μl thallium stimulus solution was added to the cell plate and the fluorescence signal recorded every second for 1 min (excitation: 470–495 nm, emission: 515–575 nm).
smiles,measurement,setting,value
Nc1nonc1-c1nc2ccccc2n1Cc1ccncc1 [C101248],effect on microglial resting membrane potential,"[1]; 5 μM, current-clamp, no externally applied ATP",significantly depolarised
same,effect on 100 μM ATP-evoked THIK-1 K+ currents,"[1]; 0.05, 0.5 and 5 μM, microglia voltage-clamped at 0 mV",dose-dependently inhibited
same,effect on baseline membrane current in THIK-1 KO mice,"[2]; microglia voltage-clamped at 0 mV, THIK-1 KO mice",no further changes
same,effect on inward or outward currents induced by depolarising voltage steps,[2]; voltage steps −150 mV to +60 mV,no effect
same,inhibition at 30 µM,TREK-1,18%
